{"source": "patent US8586505B2", "about": "(SDS Biotech K. K., priority 2009, dated 2013)", "key": {"Tetranychus urticae eggs": {"system": "Tetranychus urticae eggs", "assay": "Test of examining effect on Tetranychus urticae eggs (ovicidal rate)", "assay_type": "in vivo", "details": "144 h, 0.4 ml sprayed, unhatched eggs counted six days later, read-out: Determination (ovicidal rate)", "experimental": "Thereafter, the released female adults were removed. […] Six days later, the number of unhatched eggs was counted, and an ovicidal rate was calculated."}, "[1]": {"system": "Pseudoperonospora cubensis", "assay": "Test of examining control effect on Pseudoperonospora cubensis (potted cucumber plants)", "assay_type": "in vivo", "details": "96 h, 10% wettable powder adjusted to 125 ppm, 15 ml/pot sprayed on potted cucumber plants one day before spray inoculation, assessed after 1 day wet chamber and 3 days greenhouse, read-out: Determination of control effect (preventive value) on Pseudoperonospora cubensis", "in_short": "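Cucumber plants (Sagamihanjiro, 2.5-leaf stage) sprayed with 125 ppm compound solution from 10% wettable powder, 15 ml/pot. One day later, spray-inoculated with P. cubensis conidia (1.0×10^4 cells/ml), kept 1 day at 21° C wet, then 3 days in greenhouse. Preventive value derived from lesion area relative to untreated plants.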"}, "Phytophthora infestans": {"system": "Phytophthora infestans", "assay": "whole plant or invertebrate", "assay_type": "in vivo", "details": "in Solanum lycopersicum, 96 h, read-out: Determination of control effect (preventive value)"}, "Sphaerotheca fuliginea": {"system": "Sphaerotheca fuliginea", "assay": "Test of examining control effect on Sphaerotheca fuliginea (potted cucumber plants)", "assay_type": "in vivo", "details": "Podosphaera fuliginea, 336 h; 10% wettable powder adjusted to 125 ppm, 15 ml/pot sprayed on potted cucumber plants one day before spray inoculation; assessed after 14 days in greenhouse; read-out: Determination of control effect (preventive value) on Sphaerotheca fuliginea", "in_short": "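Cucumber plants (Sagamihanjiro, 2nd leaf stage) sprayed with 125 ppm compound (from 10% wettable powder), inoculated one day later with S. fuliginea conidia (1.0×10^5 cells/ml); lesion area scored after 14 days in greenhouse. Preventive value vs untreated; ≥60% high, <60% low control.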"}}}
{"smiles": "COC(=O)c1cccc(C#CCCNc2ncnc3sccc23)c1", "note": "[compound 30]", "values": [{"measurement": "pest or weed control at 250 ppm", "setting": "Tetranychus urticae eggs", "value": "60 to 80", "unit": "%"}, {"measurement": "pest or weed control at 125 µg/mL", "setting": "[1]", "value": "60 to 100", "unit": "%"}, {"measurement": "pest or weed control at 125 ppm", "setting": "Phytophthora infestans", "value": "0 to 60", "unit": "%"}, {"measurement": "melting point", "value": "163 to 166", "unit": "°C"}, {"measurement": "pest or weed control at 125 µg/mL", "setting": "Sphaerotheca fuliginea", "value": "0 to 60", "unit": "%"}]}
